Laboratory results: article PMC5066151 (ACS Medicinal Chemistry Letters, 2016)
Blank lines part the entries; values can stand above or below the compound they belong to.

Assays:
[1] = cited from earlier work
[2] = biological target: T1, recombinant human renin (rh-renin) (Homo sapiens, UniProt P00797); test: Rh-renin inhibition assay; assay type: biochemical; details: 3R,5S-enantiomer vs 3S,5R-enantiomer; rh-renin or hPRA assay
T1 sequence (P00797 67-406): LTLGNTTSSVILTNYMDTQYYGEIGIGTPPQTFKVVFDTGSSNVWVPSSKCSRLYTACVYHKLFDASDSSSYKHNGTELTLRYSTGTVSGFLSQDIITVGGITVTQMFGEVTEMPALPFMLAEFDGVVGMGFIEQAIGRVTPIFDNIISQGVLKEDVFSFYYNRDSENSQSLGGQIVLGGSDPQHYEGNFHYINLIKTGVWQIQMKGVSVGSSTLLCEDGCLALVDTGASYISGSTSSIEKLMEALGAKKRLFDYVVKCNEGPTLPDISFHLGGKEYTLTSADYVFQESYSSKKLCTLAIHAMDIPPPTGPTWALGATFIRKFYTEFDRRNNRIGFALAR

[3] = biological target: T2, endogenous renin in human plasma (Homo sapiens, UniProt P00797); test: Human plasma renin activity; assay type: biochemical; details: methoxypropylamino vs furfurylamine S3sp binder (compound 5)
T2 sequence (P00797 67-406): T1 sequence (P00797 67-406)

[4] = Pharmacokinetic analysis in rat cassette dosing; assay type: in vivo; details: 1 mg/kg p.o., n = 3
[5] = test system: human-angiotensinogen and human-renin double transgenic rats (dTg rat); test: Antihypertensive effect, systolic blood pressure by tail-cuff in dTg rat model
[6] = biological target: pepsin (Homo sapiens, UniProt P0DJD8); test: Selectivity against aspartic protease pepsin; assay type: biochemical
Chain of pepsin (P0DJD8 63-388): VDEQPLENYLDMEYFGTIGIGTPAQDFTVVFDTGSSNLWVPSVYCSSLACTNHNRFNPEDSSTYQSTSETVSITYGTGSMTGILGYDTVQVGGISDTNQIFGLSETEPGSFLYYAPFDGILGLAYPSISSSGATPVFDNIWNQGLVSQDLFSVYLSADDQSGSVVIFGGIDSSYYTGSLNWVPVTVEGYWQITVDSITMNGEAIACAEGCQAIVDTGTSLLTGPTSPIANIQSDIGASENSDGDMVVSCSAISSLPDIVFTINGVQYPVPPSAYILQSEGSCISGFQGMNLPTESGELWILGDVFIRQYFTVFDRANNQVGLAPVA

SMILES: CC(C)CN(C(=O)c1cnc(C(C)(C)C)nc1NCc1ccco1)[C@H]1CCCNC1 [Compound 1]
oral bioavailability in rats [1]: 13.8%

fold more potent toward renin than its enantiomer 4 [2]: about 30 fold
SMILES: COC(=O)[C@H]1CNC[C@@H](N(CC(C)C)C(=O)c2cnc(C(C)(C)C)nc2NCc2ccco2)C1 [Compound 5]

fold decrease in renin inhibitory activity relative to the furfurylamine moiety [3]: 10 fold
SMILES: COCCCNc1nc(C(C)(C)C)ncc1C(=O)N(CC(C)C)[C@@H]1CNC[C@H](C(=O)OC)C1 [Compound 6]

AUCpo [4]: not detected
SMILES: COCCCNc1nc(C(C)(C)C)ncc1C(=O)N(CC(C)C)[C@@H]1CNC[C@H](C(=O)N2CCOCC2)C1 [Compound 8]

IC50 [6]: > 10 µM
SMILES: COCCCCn1c(C(=O)N(CC(C)C)[C@@H]2CNC[C@H](C(=O)N3CCOCC3)C2)nc2ccccc21.Cl [Compound 10, 1-(4-methoxybutyl)-N-(2-methylpropyl)-N-[(3S,5R)-5-(morpholin-4-yl)carbonylpiperidin-3-yl]-1H-benzimidazole-2-carboxamide hydrochloride]
antihypertensive efficacy (SBP) compared with aliskiren 75 mg/kg ([5]; 3 mg/kg p.o., 5 h after oral administration): comparable to that of aliskiren | antihypertensive efficacy (SBP) compared with aliskiren 75 mg/kg ([5]; 10 mg/kg p.o., 5 and 24 h after administration): exceeded that of aliskiren | antihypertensive efficacy (SBP) ([5]; 3 and 10 mg/kg p.o., SBP at 5 and 24 h): potent and long-lasting antihypertensive efficacy in a dose-dependent manner
